Molecules are shown by their SMILES.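 Values below derive from 48-hour exposures of cells grown in 96-well plates, with endpoints linearly interpolated between the two concentrations bracketing the appropriate inhibition level. GI50 = concentration required for 50% inhibition of growth.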 The source made the active and inactive calls. Cut-off read from the data, not from the text of the source: active = GI50 up to about 1.1 µM and inactive = higher.

As a reminder, the GI50 is the concentration giving 50% growth inhibition.

Test systems include SNB-19; NCI/ADR-RES; SK-OV-3; IGROV-1; RXF 393; CAKI-1; OVCAR-8; COLO 205; UO-31; SK-MEL-28; HCT-15; LOX IMVI; CCRF-CEM; SNB-75; MOLT-4; OVCAR-3; MDA-MB-435; TK-10; 786-0; PC-3.
Common to all, as to assay: DTP human tumour cell line panel, 48 h

Consider `COc1ccc2c(c1)OCCc1cn[nH]c1-2`, for which the GI50 in the assay on SNB-19 is 88.7 µM (inactive); in the assay with NCI/ADR-RES it was 35.3 µM (inactive); in the assay on SK-OV-3 it was 29.7 µM (inactive); in the assay with IGROV-1 it was 23.4 µM (inactive); in the assay with RXF 393 it was 61.2 µM (inactive); with CAKI-1, < 0.01 µM (active). Also, the GI50 is 55.6 µM (inactive) with OVCAR-8; 29.3 µM (inactive) in the assay on COLO 205; 32.6 µM (inactive) in the assay with UO-31; > 100 µM (inactive) with SK-MEL-28; 35.2 µM with HCT-15; 31.3 µM (inactive) in the assay with LOX IMVI. In addition, the GI50 in the assay with CCRF-CEM was 37.4 µM (inactive); with SNB-75, 28.4 µM (inactive); with MOLT-4, 20.8 µM (inactive); with OVCAR-3, 29 µM (inactive).

With `CCC(=O)NC(Nc1ccc(O)cc1)(C(F)(F)F)C(F)(F)F`, the GI50 with MDA-MB-435 is 25.2 µM (inactive); in the assay on SNB-19, > 100 µM (inactive); with SK-OV-3 it was > 100 µM (inactive); in the assay with RXF 393, 28.8 µM (inactive); in the assay with UO-31 it was 35.6 µM (inactive); with SK-MEL-28, > 100 µM (inactive). Further, the concentration for 50% growth inhibition (GI50) in the assay on HCT-15 was 29.9 µM; in the assay on LOX IMVI it was 33.6 µM (inactive); with CCRF-CEM, 19.6 µM (inactive); in the assay on SNB-75 it was > 100 µM (inactive); in the assay on TK-10, > 100 µM (inactive); in the assay on MOLT-4 it was 42.5 µM (inactive). Besides, the GI50 with OVCAR-3 is 40.6 µM (inactive).

On to `COc1cc(OC)c(C(=O)c2cccs2)cc1N`, for which the GI50 with SNB-19, in the assay with SK-OV-3, with 786-0, in the assay with IGROV-1, with RXF 393 and with CAKI-1 was > 100 µM (inactive) each time. Also, the GI50 with OVCAR-8 is > 100 µM (inactive); with COLO 205, > 100 µM (inactive); in the assay with UO-31 it was 96.6 µM (inactive); with SK-MEL-28, > 100 µM (inactive); in the assay on HCT-15, above 100 µM; with LOX IMVI it was > 100 µM (inactive). In addition, the GI50 in the assay on CCRF-CEM, in the assay with SNB-75, in the assay with TK-10, in the assay on MOLT-4 and in the assay on OVCAR-3 was > 100 µM (inactive) each time.

Turning to `O=C1c2ccccc2C(=O)N1Cc1ccccc1-c1c2nc(c(-c3ccccc3CN3C(=O)c4ccccc4C3=O)c3ccc([nH]3)c(-c3ccccc3CN3C(=O)c4ccccc4C3=O)c3nc(c(-c4ccccc4CN4C(=O)c5ccccc5C4=O)c4ccc1[nH]4)C=C3)C=C2`, the GI50 with SK-OV-3, in the assay on 786-0, in the assay on IGROV-1, with RXF 393, in the assay on CAKI-1 and with OVCAR-8 was > 100 µM (inactive) each time. In addition, the GI50 is 74 µM (inactive) with COLO 205; > 100 µM (inactive) in the assay on UO-31; > 100 µM (inactive) with SK-MEL-28; above 100 µM in the assay with HCT-15; > 100 µM (inactive) with LOX IMVI; > 100 µM (inactive) with CCRF-CEM. In addition, the GI50 in the assay with SNB-75, in the assay with TK-10, in the assay with MOLT-4 and with OVCAR-3 was > 100 µM (inactive) throughout.

As to `Nc1nc(Cl)cc(/N=N\c2ccccc2)n1`, the GI50 is > 100 µM (inactive) in the assay with MDA-MB-435; 45.8 µM (inactive) in the assay on SNB-19; 39.8 µM (inactive) in the assay on NCI/ADR-RES; 66.1 µM (inactive) in the assay with SK-OV-3; 30.6 µM (inactive) with 786-0; 16.6 µM (inactive) with IGROV-1. The GI50 is 30.3 µM (inactive) in the assay on RXF 393; 37.6 µM (inactive) in the assay with CAKI-1; 33.2 µM (inactive) in the assay on OVCAR-8; 27.5 µM (inactive) in the assay on COLO 205; 42.1 µM (inactive) in the assay on UO-31; > 100 µM (inactive) in the assay on SK-MEL-28. Also, the GI50 is 12.5 µM with HCT-15; 18.5 µM (inactive) in the assay on LOX IMVI; 13 µM (inactive) with CCRF-CEM; 38.7 µM (inactive) in the assay with SNB-75; 61.2 µM (inactive) with TK-10; 18.5 µM (inactive) with MOLT-4. Moreover, the GI50 in the assay on OVCAR-3 was 11.7 µM (inactive).

On to `C/C(=C/C(=O)Nc1ccccc1)Nc1onc(C)c1C`, for which the GI50 in the assay with SNB-19, in the assay with NCI/ADR-RES, in the assay on SK-OV-3, with IGROV-1, in the assay on RXF 393 and with OVCAR-8 was > 100 µM (inactive) throughout. The GI50 in the assay on COLO 205 was > 100 µM (inactive); in the assay with UO-31, > 100 µM (inactive); in the assay with SK-MEL-28 it was > 100 µM (inactive); in the assay on HCT-15 it was above 100 µM; with LOX IMVI it was > 100 µM (inactive); in the assay on CCRF-CEM, > 100 µM (inactive). Besides, the values for the GI50 with SNB-75, in the assay with MOLT-4 and with OVCAR-3 were 38.4 µM (inactive), > 100 µM (inactive) and > 100 µM (inactive), respectively.

As for `CCOC(=O)C1(C#N)C(c2ccccc2)CC(O)(c2ccc([N+](=O)[O-])cc2)C(C(=O)c2ccc([N+](=O)[O-])cc2)C1c1ccccc1` (stereo not drawn), the GI50 with SNB-19 was 32.2 µM (inactive); with SK-OV-3 it was > 100 µM (inactive); with 786-0, > 100 µM (inactive); in the assay on IGROV-1, > 100 µM (inactive); in the assay on RXF 393, 15.5 µM (inactive); in the assay with CAKI-1, > 100 µM (inactive). The GI50 in the assay with OVCAR-8 is > 100 µM (inactive); with COLO 205, > 100 µM (inactive); in the assay on UO-31 it was > 100 µM (inactive); in the assay on SK-MEL-28 it was > 100 µM (inactive); in the assay on HCT-15 it was above 100 µM; in the assay on LOX IMVI, > 100 µM (inactive). In addition, the GI50 in the assay on CCRF-CEM was > 100 µM (inactive); with SNB-75 it was 21 µM (inactive); with TK-10 it was > 100 µM (inactive); in the assay with MOLT-4, > 100 µM (inactive); in the assay on OVCAR-3 it was > 100 µM (inactive).

With `Cc1cc(NS(=O)(=O)c2ccc(NC(=O)COC(=O)c3cccc4c(=O)c5ccccc5[nH]c34)cc2)no1`, the GI50 in the assay on SNB-19, in the assay with SK-OV-3, in the assay with 786-0, with IGROV-1, in the assay on RXF 393 and with CAKI-1 was > 100 µM (inactive) in each case. Besides, the GI50 is > 100 µM (inactive) in the assay on OVCAR-8; > 100 µM (inactive) in the assay on COLO 205; > 100 µM (inactive) in the assay with UO-31; > 100 µM (inactive) in the assay with SK-MEL-28; above 100 µM in the assay with HCT-15; > 100 µM (inactive) in the assay with LOX IMVI. The GI50 in the assay with CCRF-CEM, with SNB-75, in the assay with TK-10, in the assay on MOLT-4 and with OVCAR-3 was > 100 µM (inactive) in each case.

With `COC(=O)C(Cc1nc2ccc(Cl)cc2nc1O)/C(=N/O)C(=O)Nc1cccc(Cl)c1C` (stereo not drawn), the GI50 in the assay on SNB-19 was > 100 µM (inactive); in the assay with SK-OV-3, > 100 µM (inactive); in the assay on 786-0, > 100 µM (inactive); in the assay with IGROV-1 it was > 100 µM (inactive); with RXF 393, 88.1 µM (inactive); in the assay on CAKI-1, > 100 µM (inactive). The GI50 in the assay on OVCAR-8 was > 100 µM (inactive); in the assay on COLO 205, > 100 µM (inactive); in the assay with UO-31, > 100 µM (inactive); with SK-MEL-28, > 100 µM (inactive); with HCT-15, above 100 µM; in the assay with LOX IMVI, > 100 µM (inactive). In addition, the GI50 with CCRF-CEM is > 100 µM (inactive); in the assay with SNB-75, 65.6 µM (inactive); in the assay with TK-10, > 100 µM (inactive); in the assay on MOLT-4, > 100 µM (inactive); with OVCAR-3, > 100 µM (inactive).

For `NS(=O)(=O)c1ccc(CNC(=S)NC(=O)Nc2ccc(Cl)c(Cl)c2)cc1`, the GI50 is 8.57 µM (inactive) in the assay on PC-3; 19.8 µM (inactive) in the assay with SNB-19; 19 µM (inactive) in the assay with NCI/ADR-RES; 19.6 µM (inactive) in the assay on SK-OV-3; 16.8 µM (inactive) with 786-0; 17.9 µM (inactive) with IGROV-1. Moreover, the GI50 with RXF 393 was 27.9 µM (inactive); in the assay with OVCAR-8, 20.3 µM (inactive); in the assay on COLO 205, 33 µM (inactive); in the assay with UO-31 it was 16.9 µM (inactive); with SK-MEL-28, 21.6 µM (inactive); with HCT-15, 16.2 µM. The GI50 in the assay on LOX IMVI is 13.7 µM (inactive); in the assay with CCRF-CEM, 16.4 µM (inactive); in the assay with SNB-75 it was 17.5 µM (inactive); with TK-10, 39.5 µM (inactive); with MOLT-4, 15.9 µM (inactive).

Take `Cc1cccc2c1[nH]c1[nH]c(=O)[nH]c(=O)c12`: the GI50 in the assay on MDA-MB-435, in the assay on SNB-19, with NCI/ADR-RES, with SK-OV-3, in the assay on 786-0 and in the assay on IGROV-1 was > 100 µM (inactive) each time. Further, the GI50 was > 100 µM (inactive) in the assay with RXF 393; > 100 µM (inactive) with CAKI-1; > 100 µM (inactive) in the assay on OVCAR-8; > 100 µM (inactive) with COLO 205; > 100 µM (inactive) with UO-31; above 100 µM in the assay with HCT-15. Moreover, the GI50 in the assay with LOX IMVI is > 100 µM (inactive); in the assay on CCRF-CEM it was > 100 µM (inactive); in the assay on SNB-75 it was 13 µM (inactive); in the assay on TK-10 it was > 100 µM (inactive); in the assay with MOLT-4, > 100 µM (inactive); in the assay on OVCAR-3, 30.7 µM (inactive).

For `COc1cccc(N[C@@H]2c3cc4c(cc3C(c3cc(OC)c(O)c(OC)c3)[C@H]3C(=O)OCC32)OCO4)c1` (stereo partly drawn), the concentration for 50% growth inhibition (GI50) in the assay on SNB-19 was 0.328 µM (active); in the assay on NCI/ADR-RES, 0.348 µM (active); with SK-OV-3, 1.32 µM (inactive); in the assay on IGROV-1 it was 2.07 µM (inactive); with RXF 393, 1.07 µM (active); in the assay on CAKI-1, 0.197 µM (active). The GI50 with OVCAR-8 is 1.22 µM (inactive); in the assay with COLO 205, 2.11 µM (inactive); in the assay on UO-31, 0.302 µM (active); in the assay on SK-MEL-28, 2.49 µM (inactive); in the assay with HCT-15 it was 0.552 µM; in the assay with LOX IMVI, 0.558 µM (active). The 50% growth inhibitory concentration (GI50) in the assay with CCRF-CEM is 0.0546 µM (active); in the assay on SNB-75, 0.52 µM (active); with MOLT-4, < 0.01 µM (active); with OVCAR-3, 8.53 µM (inactive).

The values are drawn from ChEMBL document CHEMBL1201862, “PubChem BioAssay data set” (2004).
